This is an account of results in patent publication US10882852B1, “3-vinylquinolines as cancer cells inhibitors” (King Abdulaziz University, priority 2020, dated 2021).

The subject of assay [1] is MCF-7 cells. As to the kind of experiment: Annexin V/PI apoptotic assay. It counts as cell-based, human. The settings on record: MCF-7, 50 nM, 48 h; control 1%. How it is done:
Apoptotic cell death was detected by flow cytometry using Annexin V and propidium iodide (PI). […] Cells were then harvested and prepared for flow cytometric analysis. Cells were washed in 1× binding buffer (20× binding buffer: 0.1M HEPES, pH 7.4; 1.4 M NaCl; 25 mM CaCl2) diluted in dH2O) and incubated in the dark for 30 minutes on ice in Annexin V-containing binding buffer [1:100]. Cells were then washed once in binding buffer and then re-suspended in […] binding buffer [1:1000]. Samples were analysed immediately using the BD accuri flow cytometer and prism software for analysis the data. Four populations are produced during the assay Annexin V and PI negative (Q4, healthy cells), Annexin V positive and PI negative (Q3, early apoptosis), Annexin V and PI positive (Q2, late apoptosis) and Annexin V negative and PI positive (Q1, necrosis).

Assay [2] concerns tubulin (colchicine binding site). Nature of the assay: [3H]colchicine site competitive binding assay. The settings on record: inhibition of [3H]colchicine binding. How it is done:
The affinity of compounds 8c to colchicine binding site was determined using Colchicine Site Competitive Assay kit CytoDYNAMIX Screen15 (Cytoskeleton, Inc., CO, USA) using the standard protocol of the manufacturer to determine Ki values (μM). Biotin-labelled tubulin ([…]) in 10 μL of reaction buffer was mixed with [3H]colchicine (0.08 μM, PerkinElmer, Waltham, Mass.) and the test compounds (positive control colchicine, negative control vinblastine, G-1, fluorescent G-1, or 2-ME) in a 96-well plate (final volume: 100 μL). After incubating for 2 h at 37° C. with gentle shaking, streptavidin-labelled yttrium SPA beads ([…] in 20 μL reaction buffer, PerkinElmer, Waltham, Mass.) were added to each well and incubated for 30 min at 4° C. The plates were then read on a scintillation counter (Packard Instrument, Topcount Microplate Reader) and the percentage of inhibition was calculated

Assay [3] relates to HCT-116 colon cancer cells. Nature of the assay: MTT cell viability assay, HCT-116. It counts as cell-based, human. The settings on record: HCT-116, MTT. How it is done:
(§1) All the human tumour cell lines MCF-7, HCT-116, HL-60 and HeLa were cultured in Dulbecco's Modified Eagle's Medium (DMEM) with 10% fetal bovine serum, 2 mM L-glutamine and 100 µg/mL penicillin/streptomycin. Cells were maintained at 37° C. in 5% CO2 in a humidified incubator. All cells were sub-cultured 3 times/week by trypsinization using TrypLE Express (1×).
(§2) The quinoline compounds were evaluated for antiproliferative effect using the MTT viability assay of four cancer cell lines (MCF-7, HCT-116, HL-60 and HeLa) and normal breast cells MCF-10A to calculate the relative IC50 values for each compound. Cells were seeded in triplicate in 96-well plates at a density of 10×10^3 cells/ml in a total volume of 200 μl per well. 0.1% of DMSO was used as a vehicle control. After this time, they were treated with 2 μl test compound which had been pre-prepared as stock solutions in ethanol to furnish the concentration range of study, 1 nM to 50 μM, and re-incubated for a further 72 h. The culture medium was then removed, and the cells washed with 100 μL phosphate buffered saline (PBS) and 50 μL MTT added, to reach a final concentration of 1 mg/mL MTT added. Cells were incubated for 2 h in darkness at 37° C. At this point solubilisation was begun through the addition of […] DMSO and the cells maintained at room temperature in darkness for 20 min to ensure thorough colour diffusion before reading the absorbance. Plates were incubated for 72 hours at 37° C.+5% CO2, The MTT (5 mg/mL in PBS) was added and incubated for another 4 h, the optical density was detected with a microplate reader at 570 nm. Results were expressed as percentage viability relative to vehicle control (100%). Dose response curves were plotted and IC50 values (concentration of drug resulting in 50% reduction in cell survival) were obtained using the commercial software package Prism (GraphPad Software, Inc., La Jolla, Calif., USA). All the experiments were repeated in at least three independent experiments.

A further assay concerns bovine brain tubulin. As to the kind of experiment: Tubulin polymerization assay. The format is biochemical. The settings on record: inhibition of tubulin polymerization; tubulin at 10 μM; read-out: Tubulin assembly IC50 ± SD. How it is done:
The assembly of purified bovine tubulin was monitored using a kit, BK006, purchased from Cytoskeleton Inc., (Denver, Colo., USA). The assay was carried out in accordance with the manufacturer's instructions using the standard assay conditions. […] Light is scattered proportionally to the concentration of polymerized microtubules in the assay. Therefore, tubulin assembly was monitored turbidimetrically at 340 nm in a Spectramax 340 PC spectrophotometer (Molecular Devices, Sunnyvale, Calif., USA). The concentration that inhibits tubulin polymerization by 50% (IC50) was determined using area under the curve (AUC). The AUC of the untreated controls were considered as 100% polymerization. The IC50 value for each compound was computed using GraphPad Prism Software.

For assay [4], the system named is MCF-10A normal epithelial breast cells. As to the kind of experiment: MTT cell viability assay, normal breast cells. It counts as cell-based, human. To be noted: 72 h. How it is done:
as §2, with “Dose response curves were plotted and IC50 values (concentration of drug resulting in 50% reduction in cell survival) were obtained using the commercial software package Prism (GraphPad Software, Inc., La Jolla, Calif., USA). All the experiments were repeated in at least three independent experiments.” left out

Assay [5] concerns MCF-7 breast cancer cells. As to the kind of experiment: MTT cell viability assay, MCF-7. It counts as cell-based, human. How it is done: as §1, §2
For assay [6], the system named is MCF-7 cells. Nature of the assay: ROS production by H2-DCFDA. It counts as cell-based, human. To be noted: MCF-7, 50 nM, 24 h; untreated 1.0%. How it is done: Mitochondrial membrane potential (Δψmt) was measured by flow cytometry with DiOC2(3) staining and additional labelling with an annexin V conjugate. After treatment with compound 8c (50 and 250 nM) and CA-4 (50 nM), cells were stained with DiOC2(3) dye for 30 min in the incubator then harvested and washed with PBS. DiOC2(3)-stained cells were resuspended with 1× annexin binding buffer then added annexin V conjugate and incubated at 37° C. for 15 min. Then the data obtained from flow cytometry were analyzed by Cell Quest software. Production of intracellular Reactive oxygen species (ROS) was measured using 2,7-dichlorofluorescin diacetate (H2-DCFDA) dye. MCF-7 cells were seeded and treated either with vehicle (0.1% DMSO) or with compound 8c (50 and 250 nM) and CA-4 (50 nM) for different time 6, 12 and 24 h. H2O2 was used as a positive control. The amount of ROS generated was estimated after 2 h of selected compound treatment. The cells were collected by centrifugation and washed twice with PBS. Cells were then incubated with DCFDA dye (25 μM) in dark at 37° C. for 1 h. Fluorescence spectra (510-600 nm) were monitored using an excitation wavelength of 488 nm

Assay [7] concerns HeLa cervical cancer cells. As to the kind of experiment: MTT cell viability assay, HeLa. The format is cell-based, human. How it is done: as §1, §2
A general note: Tetrazolium assays rely on reduction of a dye to a coloured formazan, in cell work by metabolically active cells.

A further assay has as its system HL-60 leukemia cells. As to the kind of experiment: MTT cell viability assay, HL-60. It counts as cell-based, human. How it is done: as §1, §2
Assay [8] relates to MCF-7 cells. As to the kind of experiment: Cell cycle analysis by PI flow cytometry. To be noted: MCF-7, 50 nM. It counts as cell-based, human. How it is done: MCF-7 cells were seeded at a density of 1×10^5 cells/well in 6-well plates and treated with CA-4 (50 nM) and compound 8c (50 and 250 nM) for 24, 48 and 72 hr. The cells were collected by trypsinization and centrifuged at 800×g for 15 min. Cells were washed twice with ice-cold PBS and fixed in ice-cold 70% ethanol overnight at −20° C. Fixed cells were centrifuged at 800×g for 15 min and stained with 50 μg/mL of PI, containing 50 μg/mL of DNase-free RNase A, at 37° C. for 30 min. The DNA content of cells (10,000 cells/experimental group) was analysed by flow cytometer at 488 nm using a FACSCalibur flow cytometer (BD Biosciences, San Jose, Calif.) and all data were recorded and analyzed using the CellQuest Software (Becton-Dickinson).
A general note: A flow cytometer gives signals particle by particle.

Assay [9] has as its system anti-apoptotic protein Bcl-2. As to the kind of experiment: Bcl-2 ELISA in MCF-7 cells. It counts as cell-based, human. To be noted: MCF-7, 250 nM, 48 h. How it is done: (§3) Bcl-2 content of MCF-7 cells was assessed by ELISA Kit purchased Zymed laboratories, invitrogen immunodetection according to the manufacturer's protocol, and the enzyme concentration was expressed as ng/mL [55]. ELISA Assay for BAX content of MCF-7 cells was assessed by ELISA kit purchased from Cloud-Clone Crop. (USA) according to the manufacturer's protocol, and the enzyme concentration was expressed as ng/mL [56]. In Vitro Caspase-9 Activation Assay was performed using human active caspase-9 Invitrogen EIA kit and the procedure of the used kit was done according to the manufacturer's instructions.
For orientation: ELISA stands for enzyme-linked immunosorbent assay.

Assay [10] has as its system MCF-7 cells. Nature of the assay: Colony formation assay. It counts as cell-based, human. The settings on record: MCF-7, 50 and 250 nM. How it is done:
MCF-7 cells (600 cells per well) were seeded in 6-well plates and incubated for 24 h before being then treated with different doses of the compound 8c (50 and 250 nM) for 14 days. […]. Then the cells were washed with PBS twice and subsequently fixed with 4% paraformaldehyde and stained with 0.05% crystal violet for 30 min. Finally, cells were visualized using an inverted microscope.

The subject of assay [11] is MCF-7 cells. As to the kind of experiment: Wound healing (cell migration) assay. The settings on record: MCF-7, 24 h. It counts as cell-based, human. How it is done:
MCF-7 were grown in 6-well plates for 24 h, then the scratches were made using pipette tip and washed with PBS to remove non-adherent cell debris. Subsequently, the cells were treated with different concentrations of 8c for 24 h. The migrations across the wound area were photographed under a phase contrast microscopy.

The test system of assay [12] is pro-apoptotic protein Bax. Nature of the assay: BAX ELISA in MCF-7 cells. The format is cell-based, human. To be noted: MCF-7, 250 nM, 48 h. How it is done: as §3
In a further assay the test system is caspase-9. Nature of the assay: Caspase-9 activation assay in MCF-7 cells. To be noted: MCF-7, 50 nM. The format is cell-based, human. How it is done:
as §3

Molecules are shown by their SMILES. Values joined by “and” are separate entries in the source; they are usually repeats but may differ in a detail not shown here. Identical values can stand only once. Like-named read-outs stand apart in the source and are kept apart here.

In general, IC50 refers to the concentration needed to halve the response being measured.

Regarding `COc1ccc(/C=C\c2cc(OC)c(OC)c(OC)c2)cc1O` [CA-4, Combretastatin A-4, reference compound], in the assay on MCF-7 cells [1], the “Annexin V-staining positive cells (total apoptotic cells)” value is 29%. Besides, the “Colchicine binding % ± SD, 1 μM drug” value in [2] was 86% and 86 ± 0.9%. In assay [2], the “Colchicine binding % ± SD, 5 μM drug” value is 97% and 97 ± 2%. Further, the concentration for half-maximal inhibition (IC50) is 0.026 ± 0.001 µM in assay [3] (72 h, read-out: IC50 value (μM) HCT-116); […] in the assay with bovine brain tubulin; 6.1 µM in assay [4]; 0.019 ± 0.004 µM in assay [5] (MCF-7, MTT, 72 h, read-out: IC50 value (μM) MCF-7); 0.064 ± 0.004 µM in [7] (72 h, read-out: IC50 value (μM) HeLa); 0.076 ± 0.004 µM in the assay on HL-60 leukemia cells (HL-60, MTT, 72 h, mean ± spread of three experiments, read-out: IC50 value (μM) HL-60). In the assay on MCF-7 cells [6], this molecule had an ROS generation of 18.3%. Moreover, the “percentage of cells in G2/M phase” value in the assay on MCF-7 cells [8] (24 h) was found to be 40.3%; in the assay with MCF-7 cells [8] (48 h, control 9.2%), 43.8%; with MCF-7 cells [8] (72 h) it was 47.7%. The “population in the sub-G1 phase (apoptosis)” value with MCF-7 cells [8] (24 h) is recorded as 23.5%; in the assay on MCF-7 cells [8] (48 h) it was 31.1%; in the assay with MCF-7 cells [8] (72 h), 37.4%.

On to `COc1cc(C2=NC(=Cc3cc4ccc(C)cc4nc3OC)C(=O)O2)cc(OC)c1OC` [Compound 8c, 4-[(2-Methoxy-7-methylquinolin-3-yl)methylene]-2-(3,4,5-trimethoxyphenyl)oxazol-5(4H)-one], for which the “Annexin V-staining positive cells (total apoptotic cells)” value in the assay with MCF-7 cells [1] is 15%. In assay [2], the “Colchicine binding % ± SD, 1 μM drug” value was 79% and 79 ± 2%. The “Colchicine binding % ± SD, 5 μM drug” value in assay [2] is 87% and 87 ± 1%. The IC50 in assay [3] (Homo sapiens, read-out: IC50 in HCT-116) is 0.0225 µM; in the assay with bovine brain tubulin it was 1200 nM and 1210 nM; in assay [5] (Homo sapiens, MCF7, MCF-7, MTT, read-out: IC50 in MCF-7), 0.0107 µM; in [5] (MCF-7, MTT, read-out: IC50 in MCF-7) it was 0.0191 µM; in [7] (Homo sapiens, read-out: IC50 in HeLa) it was 0.0427 µM; with HL-60 leukemia cells (HL-60, MTT, read-out: IC50 in HL-60) it was 0.0107 µM. The IC50 with HL-60 leukemia cells (Homo sapiens, HL-60, HL-60, MTT, read-out: IC50 in HL-60) came to 0.0191 µM. Also, the “expression level of anti-apoptotic protein Bcl-2” value in assay [9] was “decrease in the expression level”. For the same molecule, the “inhibition of colony formation” value in the assay on MCF-7 cells [10] is reported as “inhibited the colony formation in a dose dependent manner”. Moreover, the “inhibition of cell migration (wound healing)” value with MCF-7 cells [11] is given as “migration inhibition in a dose dependent manner”. Besides, the “expression of pro-apoptotic protein Bax” value in assay [12] was “up-regulation in the expression”. The “fold increase in caspase-9 expression” value in the assay with caspase-9 is reported as “about 6 fold”.
